Reference: US10398142B2, “Polycationic amphiphiles as antimicrobial agents” (priority 2013, dated 2019)
Where two headings read alike, the source gives them in different places.

Columns and labels:
[1] = tested on: Staphylococcus aureus MSSA (SH1000); test: Minimum inhibitory concentration (MIC), broth microdilution; type: cell-based
Experimental: (§1) The term “minimum inhibitory concentration (MIC)” means the lowest concentration of an antimicrobial agent that will inhibit the visible growth of a microorganism after overnight incubation. MIC values against bacteria, for example, the Gram-positive Staphylococcus aureus and Enterococcus faecalis and the Gram-negative Escherichia coli and Pseudomonas aeruginosa were determined by standard methods.
(§2) With nearly three-dozen amphiphiles varying in structure and cationic nature synthesized, minimum inhibitory concentration (MIC) values against the Gram-positive Staphylococcus aureus and Enterococcus faecalis and the Gram-negative Escherichia coli and Pseudomonas aeruginosa were determined by standard methods. […] The commercially available antibacterial agent benzalkonium chloride (benzyldimethyldodecylammonium chloride, Bn,12) was tested for comparison. The broth microdilution for determining MIC values was performed as previously reported.
(§3) Different biological assays were performed. […] All cultures, with the exception of E. faecalis, were grown with shaking at 250 rpm.
(§4) Minimum inhibitory concentration (MIC) values against bacteria were measured using standard method. Compounds were serially diluted two-fold from an aqueous stock solution to yield twelve test concentrations. Overnight S. aureus, E. faecalis, E. coli, P. aeruginosa, CA-MRSA, and HA-MRSA cultures diluted to ca. 10^6 cfu/mL in Mueller-Hinton media and 100 μL were inoculated into each well of a U-bottom 96-well plate (BD Biosciences, BD351177) containing 100 μL of compound solution. Plates were incubated statically at 37° C. for 72 hours upon which time wells were evaluated visually for bacterial growth. The MIC was determined as the lowest concentration of compound resulting in no bacterial growth visible to the naked eye, based on the majority of three independent experiments. Positive and negative aqueous and media controls were conducted for each trial.

[2] = tested on: CA-MRSA (USA300-0114); test: as above; type: cell-based, Staphylococcus aureus; conditions: for MIC: Table 4, USA300-0114, read-out: MIC CA-MRSA
Experimental: as §3, §4

[3] = tested on: HA-MRSA (ATCC 33591); test: as above; type: cell-based, Staphylococcus aureus; conditions: Table 4, ATCC 33591, read-out: MIC HA-MRSA
Experimental: as §3, §4

[4] = tested on: S. aureus (MSSA, SH1000) biofilms; test: Minimum biofilm eradication concentration (MBEC), regrowth assay; type: cell-based, Staphylococcus aureus; conditions: for MBEC MSSA: Table 5, SH1000; for MBEC S. aureus: Table 2, pre-established biofilm, ± values varied between 50 and 100 μM for the six trials; for eradication of S. aureus biofilms (in words): at the concentrations tested
Excerpt: (§5) A regrowth assay was used to establish the MBEC of a compound to evaluate the antibiofilm activity. See also H. Ceri, M. Olson, D. Morck, D. Storey, R. Read, A. Buret, B. Olson, Methods Enzymol. 2001, 337, 377.
(§6) Encouraged by the potency of the QACs against planktonic bacterial cells, the inventors then evaluated the efficacy of compound (12,2,12) against Staphylococcus aureus and Enterococcus faecalis biofilms. […] To both accurately evaluate the antibiofilm activity, a regrowth assay was utilized to establish the minimum biofilm eradication concentration (MBEC) of each compound.
(§7) Different biological assays were performed. For all biological assays, laboratory strains of methicillin-susceptible Staphylococcus aureus MSSA (SH1000), Enterococcus faecalis (OG1RF), Escherichia coli (MC4100), Pseudomonas aeruginosa (PAO1), community-acquired methicillin-resistant Staphylococcus aureus CA-MRSA (USA300-0114), and hospital-acquired methicillin-resistant Staphylococcus aureus HA-MRSA (ATCC 33591) were grown at 37° C. overnight from freezer stocks in 10 mL of the media indicated for each assay. All cultures, with the exception of E. faecalis, were grown with shaking at 250 rpm.
(§8) Minimum biofilm eradication concentration (MBEC) was also measured. To each well of a flat-bottomed 96-well plate (Corning 3370), 8 μL of overnight bacterial culture was brought to a volume of 200 μL with fresh media (BHI for S. aureus and MRSA, Todd Hewitt (TH) for E. faecalis). Plates were incubated statically for 24 hours at 37° C. to establish biofilms. After 24 hours, the wells were carefully emptied by inverting the plate and gently shaking. A pre-mixed solution of media and aqueous compound stock solution was added to each well and plates were incubated at 37° C. 16 hours after pre-established biofilms were treated with compound, the media from each well was removed, biofilms were washed three times with 200 μL PBS to remove planktonic cells, and biofilms were incubated overnight at 37° C. in 200 μL of fresh media to allow any viable cells to continue growing. The wells were then vigorously pipetted to resuspend the biofilm cells and the OD at 595 nm was measured using a plate reader (POLARstar Omega, BMG Labtech). Biofilms reaching a final OD of less than 0.1 were considered eradicated and the lowest concentration of antibiotic corresponded to the MBEC. Four replicates were completed for each concentration of compound as well as positive and negative controls.

[5] = tested on: E. faecalis biofilms; test: as above; type: cell-based, Enterococcus faecalis; conditions: for eradication of E. faecalis biofilms (in words): at the concentrations tested
Excerpt: as §5, §6, §7, §8

[6] = tested on: CA-MRSA (USA300-0114) biofilms; test: as above; type: cell-based, Staphylococcus aureus; conditions: Table 5; for MBEC CA-MRSA: USA300-0114
Experimental: as §5, §7, §8

[7] = tested on: red blood cells (defibrinated sheep blood); test: Hemolysis assay (Lysis20); conditions: for Lysis20: Table 4, concentration at which less than 20% of red blood cells are lysed; for prokaryotic selectivity (lytic profile vs MIC, in words): among the multiQACs evaluated
Experimental: Hemolysis assays (Lysis20) were performed according to the procedure detailed in Peng, L., DeSousa, J., Su, Z., Novak, B. M., Nevzorov, A. A., Garland, E. R., and Melander, C., Inhibition of Acinetobacter baumannii biofilm formation on a methacrylate polymer containing a 2-aminoimidazole subunit, Chem. Comm. 2011, 47, 4896-4898. Defibrinated sheep blood was purchased from Hemostat Labs (DSB 100). Compounds representative of each class were serially diluted in sterile PBS from aqueous stock solutions and incubated with resuspended blood cells. The OD of the final suspensions were measured directly using plate reader. TritonX (1% by volume) served as a positive control (100% lysis marker) and sterile PBS served as a negative control (0% lysis marker).
Lysis20 indicates the concentration of compound (in μM) at which less than 20% of red blood cells are lysed.

[8] = tested on: Enterococcus faecalis (OG1RF); test: Minimum inhibitory concentration (MIC), broth microdilution; type: cell-based; conditions: read-out: MIC E. faecalis
Experimental: as §1, §2, §3, §4

[9] = tested on: Escherichia coli (MC4100); test: as above; type: cell-based; conditions: read-out: MIC E. coli
Experimental: as §1, §2, §3, §4

[10] = tested on: Pseudomonas aeruginosa (PAO1); test: as above; type: cell-based
Experimental: as §1, §2, §3, §4

[11] = Staphylococcus aureus, MSSA, Table 4, SH1000, read-out: MIC MSSA
[12] = Table 1, read-out: MIC P. aeruginosa
[13] = Table 1, read-out: MIC S. aureus
[14] = Table 2, pre-established biofilm, ± values varied between 50 and 100 μM for the six trials
[15] = Pseudomonas aeruginosa, PAO1, read-out: MIC P. aeruginosa
[16] = Staphylococcus aureus, MSSA, read-out: MIC S. aureus
[17] = Table 4, SH1000, read-out: MIC MSSA
[18] = Table 3, read-out: MIC P. aeruginosa
[19] = Table 3, read-out: MIC S. aureus

SMILES: CCCCCCCCCC[N+](C)(C)CCCN(C)CCC[N+](C)(C)CCCCCCCCCC [10,3,0,3,10]
- MIC [1, 11]: 1 µM
- MIC ([2]; Staphylococcus aureus): 2 µM
- MIC ([3]; Staphylococcus aureus): 2 µM
- MBEC MSSA [4]: 150 ± 50 µM
- MBEC E. faecalis ([5]; Table 5): 50 µM
- MBEC CA-MRSA [6]: 150 ± 50 µM
- Lysis20 [7]: 32 µM
- prokaryotic selectivity (lytic profile vs MIC, in words) [7]: highest prokaryotic selectivity

SMILES: CCCCCCCCCCCC[N+](C)(C)CCCCCCCCCCCC.[Br-] [12,12]
- MIC ([8]; Table 1): 1 µM
- MIC ([9]; Table 1): 8 µM
- MIC [10, 12]: 32 µM
- MIC [1, 13]: 1 µM
- MBEC S. aureus [4]: >200 µM
- MBEC E. faecalis [5, 14]: 200 µM

SMILES: CCCCCCCCCC[N+](C)(C)CCC[N+](C)(CC)CCC[N+](C)(C)CCCCCCCCCC [10,3,2,3,10]
- MIC [1, 11]: 2 µM
- MIC ([2]; Staphylococcus aureus): 2 µM
- MIC ([3]; Staphylococcus aureus): 2 µM
- MBEC MSSA [4]: 200 µM
- MBEC E. faecalis ([5]; Table 5): 100 µM
- MBEC CA-MRSA [6]: 150 ± 50 µM
- Lysis20 [7]: 32 µM
- prokaryotic selectivity (lytic profile vs MIC, in words) [7]: highest prokaryotic selectivity

SMILES: NCCCNCCCN [Norspermidine, reference compound]
- MIC ([8]; Enterococcus faecalis): > 500 µM
- MIC ([9]; Escherichia coli): > 500 µM
- MIC [10, 15]: > 500 µM
- MIC [1, 16]: > 500 µM
- MBEC S. aureus [4]: >200 µM
- MBEC E. faecalis [5, 14]: >200 µM

SMILES: CCCCCCCCCCCC[N+](C)(C)CCCN(C)C.[Br-] [12,3,0]
- MIC [1, 17]: 4 µM
- MIC [2]: 8 µM
- MIC [3]: 4 µM
- MBEC MSSA [4]: >200 µM
- MBEC E. faecalis ([5]; Table 5): >200 µM
- MBEC CA-MRSA [6]: >200 µM
- Lysis20 [7]: 32 µM

SMILES: CCCCCCCCCCCC[n+]1ccc(-c2ccc[n+](CCCCCCCCCCCC)c2)cc1.[Br-].[Br-] [PMQ-12,12]
- MIC [1, 17]: 1 µM
- MIC [2]: 1 µM
- MIC [3]: 1 µM
- MBEC MSSA [4]: 100 µM
- MBEC E. faecalis ([5]; Table 5): 100 µM
- MBEC CA-MRSA [6]: 150 ± 50 µM
- Lysis20 [7]: 8 µM

SMILES: CCCCCCCCCCCCCCCC[n+]1ccccc1.[Cl-] [Pyr,16, reference compound]
- MIC [1, 17]: 0.5 µM
- MIC [2]: 16 µM
- potency against CA-MRSA strain possessing qacA/R (in words) ([2]; compared with MSSA): decreased potency
- MIC [3]: 1 µM
- MBEC MSSA [4]: 50 µM
- MBEC E. faecalis ([5]; Table 5): 50 µM
- decrease in efficacy against MRSA biofilms compared to MSSA ([6]; MBEC): four-fold decrease in efficacy
- MBEC CA-MRSA [6]: 200 µM
- Lysis20 [7]: 8 µM

SMILES: C[N+](C)(C)CC[N+](C)(C)C [1,2,1]
- MIC ([8]; Table 1): >500 µM
- MIC ([9]; Table 1): >500 µM
- MIC [10, 12]: >500 µM
- MIC [1, 13]: >500 µM
- MBEC S. aureus [4]: >200 µM
- eradication of S. aureus biofilms (in words) [4]: unable to eradicate biofilms
- MBEC E. faecalis [5, 14]: >200 µM
- eradication of E. faecalis biofilms (in words) [5]: unable to eradicate biofilms

SMILES: CCCCCCCCCCC[n+]1ccc(-c2cc[n+](CCCCCCCCCCC)cc2)cc1 [PQ-11,11]
- MIC ([8]; Enterococcus faecalis): 1 µM
- MIC ([9]; Escherichia coli): 1 µM
- MIC [10, 15]: 4 µM
- MIC [1, 16]: 1 µM
- MBEC S. aureus [4]: 50 µM
- MBEC E. faecalis [5, 14]: 50 µM

SMILES: C[N+](C)(C)CCCCC[N+](C)(C)C [1,5,1]
- MIC ([8]; Table 1): >500 µM
- MIC ([9]; Table 1): >500 µM
- MIC [10, 12]: >500 µM
- MIC [1, 13]: >500 µM
- MBEC S. aureus [4]: >200 µM
- eradication of S. aureus biofilms (in words) [4]: unable to eradicate biofilms
- MBEC E. faecalis [5, 14]: >200 µM
- eradication of E. faecalis biofilms (in words) [5]: unable to eradicate biofilms

SMILES: CCCCCCCCCC[N+](C)(C)CC[N+](C)(C)CC[N+](C)(C)CCCCCCCCCC.[Br-].[Br-].[I-] [10, 2, 1, 2, 10]
- MIC ([8]; Table 3): 8 µM
- MIC ([9]; Table 3): 8 µM
- MIC [10, 18]: 63 µM
- MIC [1, 19]: 2 µM

SMILES: CCCCCCCCCCCCCC[N+](C)(C)CCN(C)CC[N+](C)(C)CCCCCCCCCCCCCC.[Br-].[Br-] [14, 2, 0, 2, 14]
- MIC ([8]; Table 3): 1 µM
- MIC ([9]; Table 3): 4 µM
- MIC [10, 18]: 16 µM
- MIC [1, 19]: 2 µM

SMILES: CCCCCCCCCCCCCC[N+](C)(C)CCN(C)CCN(C)CC[N+](C)(C)CCCCCCCCCCCC.[Br-].[Br-] [N4-14,0,0, 12]
- MIC ([8]; Table 3): 1 µM
- MIC ([9]; Table 3): 2 µM
- MIC [10, 18]: 8 µM
- MIC [1, 19]: 1 µM

SMILES: CCCCCCCCCC[N+](C)(C)CCN(C)CC[N+](C)(C)CCCCCCCCCC.[Br-].[Br-] [10, 2, 0, 2, 10]
- MIC ([8]; Table 3): 8 µM
- MIC ([9]; Table 3): 8 µM
- MIC [10, 18]: 63 µM
- MIC [1, 19]: 2 µM
